Laboratory results from patent US20050058600A1, “3,3'-Diindolylmethane antiandrogenic compositions” (priority 2003, published 2005).

How the values were obtained:
[1] = tested on: benzo(a)pyrene (BP)-induced tumors of the forestomach; details: mice; cited from earlier work
[2] = tested on: prostate cancer cells; details: cited from earlier work
[3] = tested on: dimethylbenzanthracene (DMBA)-induced mammary tumors; details: rats; cited from earlier work
[4] = tested on: breast cancer cells; details: in culture; cited from earlier work
[5] = tested on: BP-induced pulmonary adenomas; details: mice; cited from earlier work
[6] = tested on: skin surrounding the flank organ of the male Syrian hamster; assay: Androgen-induced delay of hair growth in the Golden Syrian hamster; format: in vivo
Experimental: Mature male golden Syrian hamsters, 101-110 g, are obtained from Charles River Laboratories (Wilmington, Mass.). Pellet implant and blood drawing procedures are performed while animals are under general anaesthesia induced by isoflurane (Aerrane®, Fort Dodge Animal Health, Overland Park, Kans.). Testosterone propionate (TP) is administered in the form of 25 mg dose time-release pellets (Inovative Research of America, Toledo, Ohio). Antiandrogenic DIM derivatives (Example II, supra) are coadministered in parallel 25 mg dose time-release pellets. Control animals receive placebo pellets, which contain only carrier/binder excipients (cholesterol, lactose, celluloses, phosphates, and stearates).
Pellets are implanted subcutaneously. A skin incision is made with scissors on the upper dorsal side of the animal, equal in length to the pellet. A horizontal pocket is created with forceps about 2 cm beyond the incision site. Pellets are placed in the pocket with forceps, and incisions are then closed with a staple suture (Autoclip®, 9 mm, Stoelting Co., Wood Dale, Ill.). Immediately after pellet implantation, the fur on and around each flank organ is shaved with electric clippers. This is designated day 0 of the study. At day 7, the fur around the flank organ is re-clipped. […] On day 21 the surface diameters of the left and right flank organs (encompassed within the pigmented area) are measured with vernier callipers. […]
Sebaceous glands are evaluated in unstained whole mounts of ventral dermal sheets from the left ears. […] The gland areas are measured using an Optomax V image analysis system (Optomax, Hollis, N.H.). The percentage change in sebaceous gland size is calculated by comparing the testosterone-treated group with the placebo-treated group. Serum testosterone is measured by radioimmunoassay at an outside laboratory (AniLytics, Inc., Gaithersburg, Md.).
Hair growth is quantified using a visual grading system (0-3 scale, where 0=no growth, 3=full hair growth). […]

Compound	incidence of BP-induced tumors of the forestomach [1]	proliferation of prostate cancer cells [2]	incidence of DMBA-induced mammary tumors [3]	proliferation of breast cancer cells [4]	incidence of BP-induced pulmonary adenomas [5]	size of the flank organ and the ear sebaceous glands ([6]; 25 mg TP dose, after 21 days)	hair growth grade (0-3 scale) ([6]; TP alone, day 14)	hair growth ([6]; TP alone, day 21)
OCc1c[nH]c2ccccc12 [I3C, indole-3-carbinol, reference compound]	reduced the incidence	inhibit proliferation	reduced the incidence	inhibit proliferation	reduced the incidence			
CCC(=O)O[C@H]1CC[C@H]2[C@@H]3CCC4=CC(=O)CC[C@]4(C)[C@H]3CC[C@]12C [TP, Testosterone propionate]						marked increase	0	insignificant
